Results taken from patent US20240156825A1, “USE OF SELECTIVE VEGFR2 AND FGFR1 INHIBITORS” (Fountain Therapeutics Inc., priority 2022, published 2024).
Like-named read-outs stand apart in the source and are kept apart here.

How the values were obtained:
VEGFR2 [1] = target: T1, VEGFR2 (Homo sapiens, UniProt P35968); settings: relative IC50: reported IC50 toward VEGFR2 divided by next lowest reported IC50 to any gene target
FGFR1 = FGFR1 (Homo sapiens, UniProt P11362)
VEGFR2 [2] = target: T1, VEGFR2; settings: cited from earlier work
VEGFR2 and FGFR1 = test: Selection of compounds that selectively inhibit both VEGFR2 and FGFR1 (average relative IC50); format: biochemical
any gene target = settings: cited from earlier work
Zmpste24−/− mice = test: Mouse model of progeria: body fat (Echo MRI), lean muscle, body weight, intrascapular brown fat; format: in vivo; settings: oral gavage QD5 for 56 days; for Body fat (Echo MRI) vs vehicle / Intrascapular brown fat mass (percent of body weight) vs vehicle: Brivanib alaninate 50, SU5402 25, Cediranib maleate 5, Regorafenib 10, infigratinib 5 mg/kg; for Body weight vs vehicle / Lean muscle vs vehicle: SU5402 25, Cediranib maleate 5, Regorafenib 10, infigratinib 5 mg/kg
Experimental: Zmpste24 mice, a progeria model mouse line, were dosed with either 50 mg/kg Brivanib alaninate for 56 days, 5 days on, 2 days off (QD5), or vehicle alone. The dose was administered via oral gavage as a suspension of 18% (w/v) PEG400 2% (w/v) Tween-80 in water . The vehicle alone was 18% (w/v) PEG400 2% (w/v) Tween-80 in water.
The body fat of the mice was measured by an Echo MRI throughout the treatment.
Samples of intrascapular brown adipose tissue from 15 week old mice treated with Brivanib Alaninate or vehicle for 56 days underwent Hematoxylin and Eosin (H&E) staining.
Zmpste24−/− mice, a progeria model mouse line, were dosed with either 25 mg/kg SU5402 for 56 days, 5 days on, 2 days off (QD5) or vehicle alone. The dose was administered via oral gavage as a suspension of 5% (w/v) DMSO 9% (w/v) PEG400 1% (w/v) Tween-80 in saline. The vehicle alone was 5% (w/v) DMSO 9% (w/v) PEG400 1% (w/v) Tween-80 in saline.
The body fat of the mice was measured by an Echo […]. Lean muscle and body weight were also measured.
The dose was administered via oral gavage as a suspension of 18% (w/v) PEG400 2% (w/v) Tween-80 in water . The vehicle alone was 18% (w/v) PEG400 2% (w/v) Tween-80 in water.
The body fat of the mice was measured by an Echo MRI. […] There was also no alteration of intrascapular brown adipose tissue mass (FIG. 5D).
The dose was administered via oral gavage as a suspension of 18% (w/v) PEG400 2% (w/v) Tween-80 in water. The vehicle alone was 18% (w/v) PEG400 2% (w/v) Tween-80 in water.
The body fat of the mice was measured by an Echo MM. […] There was also no alteration of intrascapular brown adipose tissue mass (FIG. 6D).
The body fat of the mice was measure by an Echo MRI. […] There was also no alteration of intrascapular brown adipose tissue mass (FIG. 7D). […]

[3] = relative IC50: reported IC50 toward FGFR1 divided by next lowest reported IC50 to any gene target
[4] = reported IC50 to VEGFR2, read-out: VEGFR2 IC50_μM
[5] = average of VEGFR2 and FGFR1 relative IC50
[6] = lowest reported IC50 to any gene target, read-out: min IC50
[7] = next lowest IC50 value to any gene target, read-out: Min IC50_μM
[8] = reported IC50 to VEGFR2, Table 3, selective inhibitors of VEGFR2, read-out: VEGFR2 IC50_μM
[9] = next lowest IC50 value to any gene target, Table 3, read-out: Min IC50_μM

FGFR1, sequence (P11362 22-822, species assumed): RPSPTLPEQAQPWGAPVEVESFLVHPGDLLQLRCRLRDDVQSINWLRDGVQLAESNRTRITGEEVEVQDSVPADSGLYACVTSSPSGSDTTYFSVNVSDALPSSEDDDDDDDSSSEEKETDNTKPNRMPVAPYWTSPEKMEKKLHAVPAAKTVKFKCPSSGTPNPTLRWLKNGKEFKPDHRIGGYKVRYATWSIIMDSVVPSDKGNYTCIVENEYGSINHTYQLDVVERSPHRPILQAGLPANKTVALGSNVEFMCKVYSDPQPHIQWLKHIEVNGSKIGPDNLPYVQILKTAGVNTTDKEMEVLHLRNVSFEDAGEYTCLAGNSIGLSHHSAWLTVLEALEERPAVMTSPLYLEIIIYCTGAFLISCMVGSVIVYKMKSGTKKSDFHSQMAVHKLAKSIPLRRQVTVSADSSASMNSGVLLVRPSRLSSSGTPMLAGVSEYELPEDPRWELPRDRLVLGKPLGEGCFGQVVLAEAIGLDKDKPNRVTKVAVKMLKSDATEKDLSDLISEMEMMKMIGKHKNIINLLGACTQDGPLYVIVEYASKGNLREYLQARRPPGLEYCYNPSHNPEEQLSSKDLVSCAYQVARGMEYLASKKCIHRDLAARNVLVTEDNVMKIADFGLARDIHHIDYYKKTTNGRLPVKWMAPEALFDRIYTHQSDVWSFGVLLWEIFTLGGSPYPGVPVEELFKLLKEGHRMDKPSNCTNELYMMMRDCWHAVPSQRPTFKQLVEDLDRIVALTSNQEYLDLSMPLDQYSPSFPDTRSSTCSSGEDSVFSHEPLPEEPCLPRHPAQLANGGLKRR
T1 sequence (P35968 20-1356, species assumed): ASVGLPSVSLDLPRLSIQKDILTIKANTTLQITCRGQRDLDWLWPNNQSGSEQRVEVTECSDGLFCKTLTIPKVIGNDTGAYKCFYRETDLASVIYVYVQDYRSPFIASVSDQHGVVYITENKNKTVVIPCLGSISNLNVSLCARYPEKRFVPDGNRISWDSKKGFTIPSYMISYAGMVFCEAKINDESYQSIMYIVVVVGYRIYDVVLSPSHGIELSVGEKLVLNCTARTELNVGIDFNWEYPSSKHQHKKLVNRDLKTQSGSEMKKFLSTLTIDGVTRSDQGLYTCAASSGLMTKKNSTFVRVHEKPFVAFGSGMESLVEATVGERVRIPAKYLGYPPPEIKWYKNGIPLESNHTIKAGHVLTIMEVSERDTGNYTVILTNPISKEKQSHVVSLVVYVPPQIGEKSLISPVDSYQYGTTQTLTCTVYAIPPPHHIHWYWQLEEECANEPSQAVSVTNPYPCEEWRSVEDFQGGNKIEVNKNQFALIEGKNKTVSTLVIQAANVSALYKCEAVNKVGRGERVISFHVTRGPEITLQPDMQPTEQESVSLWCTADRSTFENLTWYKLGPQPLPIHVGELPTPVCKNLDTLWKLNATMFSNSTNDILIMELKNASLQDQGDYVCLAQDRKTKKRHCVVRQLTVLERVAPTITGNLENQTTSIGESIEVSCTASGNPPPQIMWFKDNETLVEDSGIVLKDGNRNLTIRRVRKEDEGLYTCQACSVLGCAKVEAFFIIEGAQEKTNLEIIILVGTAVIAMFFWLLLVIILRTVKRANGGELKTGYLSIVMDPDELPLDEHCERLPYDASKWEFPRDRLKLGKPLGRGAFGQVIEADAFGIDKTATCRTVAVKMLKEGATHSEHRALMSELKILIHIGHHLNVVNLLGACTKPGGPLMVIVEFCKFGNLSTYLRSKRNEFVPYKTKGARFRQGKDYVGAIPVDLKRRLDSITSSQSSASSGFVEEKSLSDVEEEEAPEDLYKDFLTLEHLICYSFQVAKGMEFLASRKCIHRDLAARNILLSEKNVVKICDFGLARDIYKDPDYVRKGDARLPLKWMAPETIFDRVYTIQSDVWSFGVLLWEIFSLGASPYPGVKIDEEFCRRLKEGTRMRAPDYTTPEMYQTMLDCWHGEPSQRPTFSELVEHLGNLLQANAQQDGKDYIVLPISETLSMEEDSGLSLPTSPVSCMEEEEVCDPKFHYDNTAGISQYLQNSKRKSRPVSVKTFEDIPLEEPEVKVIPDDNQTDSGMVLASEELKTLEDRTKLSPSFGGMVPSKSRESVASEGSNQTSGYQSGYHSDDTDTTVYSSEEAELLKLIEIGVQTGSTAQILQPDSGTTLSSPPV

| VEGFR2, rIC50 (VEGFR2 [1]) | FGFR1, rIC50 (FGFR1; [3]) | Molecule | avg rIC50 (VEGFR2 and FGFR1; [5]) | IC50 (any gene target; [6]) [nM] | further results |
| --- | --- | --- | --- | --- | --- |
| 0.7 | 3.5 | COC(=O)c1ccc2c(C(=Nc3ccc(-n4c(C)ccc4CN4CCN(C)CC4)cc3)c3ccccc3)c(O)[nH]c2c1 [compound 141475848, Methyl 2-hydroxy-3-[N-[4-[2-methyl-5-[(4-methylpiperazin-1-yl)methyl]pyrrol-1-yl]phenyl]-C-phenylcarbonimidoyl]-1H-indole-6-carboxylate, reference compound] | 2.1 | 7 | IC50 (VEGFR2 [2]; [4]): 6.5 nM; IC50 (any gene target; [7]): 9.9 nM |
| 0.5 | 10.0 | COc1cc2c(Nc3ccc(C#N)cc3F)ncnc2cc1OCCn1ccnn1 [compound 5329034, Anilinoquinazoline deriv. 36, reference compound] | 5.3 | 300 | IC50 (VEGFR2 [2]; [4]): 300 nM; IC50 (any gene target; [7]): 600 nM |
| – | – | Cediranib maleate | – | – | IC50 (VEGFR2 [2]; read-out: IC50 VEGFR2): 1 nM; Body fat (Echo MRI) vs vehicle (Zmpste24−/− mice): did not show an increase; Intrascapular brown fat mass (percent of body weight) vs vehicle (Zmpste24−/− mice): no alteration; Body weight vs vehicle (Zmpste24−/− mice): did not show an increase; Lean muscle vs vehicle (Zmpste24−/− mice): did not show an increase |
| 1.0 | 1.1 | CONC(=O)c1cc(Nc2ncnn3cc(-c4nnc(N(C)C)o4)c(C(C)C)c23)c(F)cc1F [compound 9982235, 5-[6-(5-Dimethylamino-[1,3,4]oxadiazol-2-yl)-5-isopropyl-pyrrolo[2,1-f][1,2,4]triazin-4-ylamino]-2,4-difluoro-N-methoxy-benzamide, reference compound] | 1.0 | 7 | IC50 (VEGFR2 [2]; [8]): 6.7 nM; IC50 (any gene target; [9]): 6.7 nM |
| 0.5 | 2.5 | COc1ccc(N2Cc3cnc(Nc4ccccc4)nc3N([C@H]3CC[C@H](O)C3)C2=O)cc1 [compound 11407794, (−)-(1S,3S)-1-(3-Hydroxy-cyclopentyl)-3-(4-methoxy-phenyl)-7-phenylamino-3,4-dihydro-1H-pyrimido[4,5-d]pyrimidin-2-one] | 1.5 | 33 | IC50 (any gene target; [7]): 33 nM |
| 5.8 | 3.0 | Nc1c(-c2nc3ccccc3[nH]2)c(=O)[nH]c2ccccc12 [compound 135410282, 4-Amino-3-(1H-benzo[d]imidazol-2-yl)quinolin-2(1H)-one] | 4.4 | 10 | – |
| 8.3 | 0.4 | C[C@@H](Oc1ccc2[nH]nc(-c3nc4cc(N5CCN(C)CC5)ccc4[nH]3)c2c1)c1c(Cl)cncc1Cl [compound 136211077, 5-[(R)-1-(3,5-Dichloropyridine-4-yl)ethoxy]-3-[5-(4-methylpiperazine-1-yl)-1H-benzoimidazole-2-yl]-1H-indazole] | 4.4 | 1 | IC50 (any gene target; Table 2, lowest reported IC50 to any gene target, read-out: Min IC50_μM): 2 nM |
| 0.4 | 2.4 | COc1ccc(N2Cc3cnc(Nc4ccccc4)nc3N([C@@H]3CC[C@@H](O)C3)C2=O)cc1 [compound 9910609, (+)-(1R,3R)-1-(3-Hydroxy-cyclopentyl)-3-(4-methoxy-phenyl)-7-phenylamino-3,4-dihydro-1H-pyrimido[4,5-d]pyrimidin-2-one] | 1.4 | 28 | IC50 (any gene target; [7]): 28 nM |
| 0.5 | 3.1 | Cc1cc2cc(Nc3ncnn4cc(-c5nnc(C)o5)c(C(C)C)c34)cnc2[nH]1 [compound 22273644, 5-Isopropyl-6-(5-methyl-1,3,4-oxadiazol-2-yl)-N-(2-methyl-1H-pyrrolo[2,3-b]pyridin-5-yl)pyrrolo[2,1-f][1,2,4]triazin-4-amine] | 1.8 | 25 | IC50 (any gene target; [7]): 53 nM |
| 1.0 | 3.1 | CONC(=O)c1cc(Nc2ncnn3cc(-c4nnc(CC(C)C)o4)c(C(C)C)c23)c(F)cc1F [compound 11352215, 2,4-Difluoro-5-[6-(5-isobutyl-[1,3,4]oxadiazol-2-yl)-5-isopropyl-pyrrolo[2,1-f][1,2,4]triazin-4-ylamino]-N-methoxy-benzamide, reference compound] | 2.1 | 2 | IC50 (VEGFR2 [2]; read-out: VEGFR2 IC50_μM, reported IC50 to VEGFR2, Table 3, selective inhibitors of VEGFR2): 2.1 nM; IC50 (any gene target; [9]): 2.1 nM |
| 1.0 | 1.8 | CONC(=O)c1cc(Nc2ncnn3cc(-c4nnc(CC(F)(F)F)o4)c(C(C)C)c23)c(F)cc1F [compound 11455031, 2,4-Difluoro-5-{5-isopropyl-6-[5-(2,2,2-trifluoro-ethyl)-[1,3,4]oxadiazol-2-yl]-pyrrolo[2,1-f][1,2,4]triazin-4-ylamino}-N-methoxy-benzamide, reference compound] | 1.4 | 25 | IC50 (VEGFR2 [2]; [8]): 25 nM; IC50 (any gene target; [9]): 25 nM |
| 1.0 | 2.2 | CONC(=O)c1cc(Nc2ncnn3cc(-c4nnc(CS(C)(=O)=O)o4)c(C(C)C)c23)c(F)cc1F [compound 10436729, 2,4-Difluoro-5-[5-isopropyl-6-(5-methanesulfonylmethyl-[1,3,4]oxadiazol-2-yl)-pyrrolo[2,1-f][1,2,4]triazin-4-ylamino]-N-methoxy-benzamide, reference compound] | 1.6 | 2 | IC50 (VEGFR2 [2]; [8]): 2.1 nM; IC50 (any gene target; [9]): 2.1 nM |
| 2.4 | 1.2 | Chembl4449189 [compound 155520650] | 1.8 | 110 | – |
| – | – | CCN1CCN(c2ccc(Nc3cc(N(C)C(=O)Nc4c(Cl)c(OC)cc(OC)c4Cl)ncn3)cc2)CC1 [Infigratinib] | – | – | Body fat (Echo MRI) vs vehicle (Zmpste24−/− mice): did not show an increase; Intrascapular brown fat mass (percent of body weight) vs vehicle (Zmpste24−/− mice): no alteration; Body weight vs vehicle (Zmpste24−/− mice): did not show an increase; Lean muscle vs vehicle (Zmpste24−/− mice): did not show an increase |

| Molecule | VEGFR2, rIC50 (VEGFR2 [1]) | FGFR1, rIC50 (FGFR1; [3]) | avg rIC50 (VEGFR2 and FGFR1; [5]) | IC50 (any gene target; [6]) [nM] | further results |
| --- | --- | --- | --- | --- | --- |
| CCc1nnc(-c2cn3ncnc(Nc4cc(C(=O)NOC)c(F)cc4F)c3c2C(C)C)o1 [compound 11374515, 5-[6-(5-Ethyl-[1,3,4]oxadiazol-2-yl)-5-isopropyl-pyrrolo[2,1-f][1,2,4]triazin-4-ylamino]-2,4-difluoro-N-methoxy-benzamide, reference compound] | 1.0 | 2.6 | 1.8 | 2 | IC50 (VEGFR2 [2]; [8]): 1.8 nM; IC50 (any gene target; [9]): 1.8 nM |
| Cc1nnc(-c2cn3ncnc(Nc4cnc5[nH]ccc5c4)c3c2C(C)C)o1 [compound 44449577, 6-(5-Methyl-1,3,4-oxadiazol-2-yl)-5-propan-2-yl-N-(1H-pyrrolo[2,3-b]pyridin-5-yl)pyrrolo[2,1-f][1,2,4]triazin-4-amine] | 0.5 | – | – | – | FGFR1, rIC50 (FGFR1): 2.0; avg rIC50 (VEGFR2 and FGFR1): 1.2; IC50 (any gene target; read-out: Min IC50_μM): 61 nM; IC50 (any gene target; read-out: min IC50): 61 nM |
| CCS(=O)(=O)c1ccc2c(c1)C(=Cc1[nH]c3c(c1CN1CCOCC1)CCCC3)C(=O)N2 [compound 44299203, 3-[3-(Morpholinomethyl)-4,5,6,7-tetrahydro-1H-indole-2-ylmethylene]-5-(ethylsulfonyl)-2,3-dihydro-1H-indole-2-one] | 1.4 | 5.7 | 3.6 | 70 | – |
